Consider 9 molecules from ChEMBL document CHEMBL4219236, “Synthesis of some novel dimethine, bis-dimethine cyanine dyes and octacosamethine cyanine dyes endowed with promising biological potency against (HepG2), (Hela), (MCF-7), (MIA), (SN12C) and (H358) cell lines” (Bioorg Med Chem Lett, 2018).

Holding throughout (format): functional, cell-based
The subject of one experiment is HeLa. The experiment can be described thus: Cytotoxicity against human HeLa cells assessed as decrease in cell viability after 96 hrs.
The next experiment relates to NCI-H358. The experiment can be described thus: Cytotoxicity against human NCI-H358 cells assessed as decrease in cell viability after 96 hrs. The conditions noted are these: NCI-H358, 96 h.
The test system of a further experiment is SN12C. As to the kind of experiment: Cytotoxicity against human SN12C cells assessed as decrease in cell viability after 96 hrs.
The subject of a further experiment is MCF7. The experiment can be described thus: Cytotoxicity against human MCF7 cells assessed as decrease in cell viability after 96 hrs. The conditions noted are these: MCF7, 96 h.
The test system of the next experiment is HepG2. The experiment can be described thus: Cytotoxicity against human HepG2 cells assessed as decrease in cell viability after 96 hrs. The settings on record: HepG2, 96 h.
The test system of another experiment is MIA PaCa-2. As to the kind of experiment: Cytotoxicity against human MIAPaCa2 cells assessed as decrease in cell viability after 96 hrs. The conditions noted are these: MIA PaCa-2, 96 h.

SMILES strings stand for the structures. ≈ marks a conversion by molar mass, not a printed value.

For `C1=Cc2cc3cc(/C=C(\c4ccccc4)c4cccc[n+]4C4CCC([n+]5ccccc5Cc5ccccc5)CC4)c(cc4nc(cc5ccc(cc1n2)[nH]5)C=C4)[nH]3.[Br-].[Br-]` (configuration not stated), the IC50 (as a rule, the concentration that inhibits the measured activity by half) in the experiment on HeLa is 40.3 µg/mL; with NCI-H358, 38.1 µg/mL; in the experiment with SN12C, 38.9 µg/mL; in the experiment on MCF7, 45.9 µg/mL; in the experiment with HepG2, 48 µg/mL; in the experiment with MIA PaCa-2, 45.9 µg/mL.

On to `O=S(=O)([O-])c1ccccc1/C=C(\c1ccccc1)c1cccc[n+]1C1CCC([n+]2ccccc2/C(=C/c2ccccc2S(=O)(=O)[O-])c2ccccc2)CC1.[Br-].[Br-].[Na+].[Na+]` (configuration not stated), for which the IC50 in the experiment on HeLa came to 32.3 µg/mL; in the experiment with NCI-H358, 26.3 µg/mL; in the experiment on SN12C it was 26.3 µg/mL; with MCF7, 22.5 µg/mL; in the experiment on HepG2 it was 25.4 µg/mL; with MIA PaCa-2 it was 33.5 µg/mL.

As to `C(=C(/c1ccccc1)c1cccc[n+]1C1CCC([n+]2ccccc2Cc2ccccc2)CC1)/c1cc2c3c(c1)CCCN3CCC2.[Br-].[Br-]` (configuration not stated), the IC50 in the experiment with HeLa stood at 101 µg/mL; in the experiment on NCI-H358 it was 36.5 µg/mL; in the experiment on SN12C it was 86.5 µg/mL; in the experiment with MCF7, 96.9 µg/mL; in the experiment on HepG2 it was 62.5 µg/mL; in the experiment on MIA PaCa-2, 101 µg/mL.

Regarding `O=S(=O)([O-])c1ccccc1/C=C(\c1ccccc1)c1cccc[n+]1C1CCC([n+]2ccccc2Cc2ccccc2)CC1.[Br-].[Br-].[Na+]` (configuration not stated), the IC50 came out at 39.6 µg/mL in the experiment on HeLa; 30 µg/mL in the experiment with NCI-H358; 25 µg/mL in the experiment on SN12C; 29 µg/mL with MCF7; 32.2 µg/mL with HepG2; 50 µg/mL in the experiment with MIA PaCa-2.

For `O=CC1=Cc2cc3cc(/C=C(\c4ccccc4)c4cccc[n+]4C4CCC([n+]5ccccc5/C(=C/c5cc6cc7nc(cc8ccc(cc9nc(cc5[nH]6)C=C9)[nH]8)C(C=O)=C7)c5ccccc5)CC4)c(cc4nc(cc5ccc(cc1n2)[nH]5)C=C4)[nH]3.[Br-].[Br-]` (configuration not stated), the IC50 with HeLa amounted to 21 µg/mL; in the experiment on NCI-H358 it was 15.2 µg/mL; in the experiment with SN12C, 20 µg/mL; in the experiment with MCF7, 16 µg/mL; in the experiment on HepG2 it was 21 µg/mL; in the experiment on MIA PaCa-2, 20 µg/mL.

For the molecule `C(=C(/c1ccccc1)c1cccc[n+]1C1CCC([n+]2ccccc2/C(=C/c2cc3c4c(c2)CCCN4CCC3)c2ccccc2)CC1)/c1cc2c3c(c1)CCCN3CCC2.[Br-].[Br-]` (configuration not stated), the IC50 in the experiment with HeLa was found to be 49.8 µg/mL; in the experiment on NCI-H358, 75.6 µg/mL; in the experiment on SN12C, 52.6 µg/mL; in the experiment with MCF7 it was 35.6 µg/mL; in the experiment on HepG2, 53.1 µg/mL; with MIA PaCa-2 it was 55.6 µg/mL.

With `C1=Cc2cc3cc(/C=C(\c4ccccc4)c4cccc[n+]4C4CCC([n+]5ccccc5/C(=C/c5cc6cc7nc(cc8ccc(cc9nc(cc5[nH]6)C=C9)[nH]8)C=C7)c5ccccc5)CC4)c(cc4nc(cc5ccc(cc1n2)[nH]5)C=C4)[nH]3.[Br-].[Br-]` (configuration not stated), the IC50 with HeLa was found to be 35.3 µg/mL; with NCI-H358, 49.6 µg/mL; in the experiment with SN12C, 31.1 µg/mL; in the experiment on MCF7 it was 45.6 µg/mL; with HepG2, 33 µg/mL; in the experiment on MIA PaCa-2 it was 45.6 µg/mL.

Take `O=CC1=Cc2cc3cc(/C=C(\c4ccccc4)c4cccc[n+]4C4CCC([n+]5ccccc5Cc5ccccc5)CC4)c(cc4nc(cc5ccc(cc1n2)[nH]5)C=C4)[nH]3.[Br-].[Br-]` (configuration not stated): the IC50 with HeLa was 23.7 µg/mL; with NCI-H358 it was 23.3 µg/mL; with SN12C it was 20.3 µg/mL; in the experiment with MCF7 it was 19.1 µg/mL; in the experiment with HepG2 it was 25.2 µg/mL; with MIA PaCa-2, 29.3 µg/mL.

In the case of `O=c1[nH]cc(F)c(=O)[nH]1` [FLUOROURACIL], the IC50 was found to be 3.2 µg/mL (≈ 24.6 µM) in the experiment with HeLa, 6.9 µg/mL (≈ 53 µM) with NCI-H358, 6.5 µg/mL (≈ 50 µM) in the experiment on SN12C and 3.5 µg/mL (≈ 26.9 µM) in the experiment on MIA PaCa-2.
